We go through 23 molecules from patent US12570675B2, “Boronic acid compounds” (LG CHEM, LTD., priority 2020, dated 2026).

By IC50 is commonly meant the point on the concentration scale where inhibition reaches its midpoint.

Structures are written as SMILES.

In the experiment the target is Proteasome chymotrypsin-like activity (S26 protein from RPMI8226 cells) (Homo sapiens, UniProt P28074). It is filed as biochemical. The note with it: S26 protein from RPMI8226 cell extract 2 ug/well, substrate 20 uM, 37° C., 90 minutes; read-out: Proteasome chymotrypsin-like activity inhibition IC50. An outline of the steps: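 Fluorogenic AMC substrates (20 uM final) report chymotrypsin-like (Suc-Leu-Leu-Val-Tyr-AMC) or caspase-like (Z-Leu-Leu-Glu-AMC) cleavage by RPMI8226-derived S26 protein, 2 ug/well, pH 8.0 Tris lysate.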
Sequence of Proteasome chymotrypsin-like activity (S26 protein from RPMI8226 cells) (P28074 60-263 limits assumed): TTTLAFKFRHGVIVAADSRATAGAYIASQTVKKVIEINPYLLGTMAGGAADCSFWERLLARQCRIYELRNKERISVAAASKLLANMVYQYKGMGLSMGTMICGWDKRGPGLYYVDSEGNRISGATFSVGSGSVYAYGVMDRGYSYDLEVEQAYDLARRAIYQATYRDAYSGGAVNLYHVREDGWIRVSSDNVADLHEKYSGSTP
As for `COc1cccc(CC2(C(=O)N[C@@H](CC(C)C)B(O)O)CC(CNC(=O)c3cc(-c4ccccn4)nn3C(C)C)=NO2)c1` (stereo partly drawn) [Example 241, ((1R)-1-(3-((1-isopropyl-3-(pyridin-2-yl)-1H-pyrazol-5-carboxamido)methyl)-5-(3-methoxybenzyl)-4,5-dihydroisoxazol-5-carboxamido)-3-methylbutyl)boronic acid], the IC50 was below 10 nM.
In the case of `CC[C@H](NC(=O)C1(Cc2ccccc2)CC(CNC(=O)c2cccn3ccnc23)=NO1)B(O)O` (stereo partly drawn) [Example 297, ((1R)-1-(5-benzyl-3-((imidazo[1,2-a]pyridin-8-carboxamido)methyl)-4,5-dihydroisoxazol-5-carboxamido)propyl)boronic acid], the IC50 is below 25 nM.
The figure for `CC(C)C[C@H](NC(=O)C1(Cc2ccccc2)CC(CNC(=O)c2cccn3cnnc23)=NO1)B(O)O` (some centres unmarked) [Example 305] is below 10 nM; for `Cc1cccnc1C(=O)NCC1=NOC(Cc2ccccc2)(C(=O)N[C@@H](CC(C)C)B(O)O)C1` (stereo partly drawn) [Example 159, ((1R)-1-(5-benzyl-3-((3-methylpicolinamido)methyl)-4,5-dihydroisoxazol-5-carboxamido)-3-methylbutyl)boronic acid] it is below 10 nM; for `CC(C)C[C@H](NC(=O)C1(Cc2ccccc2)CC(CNC(=O)c2cccc(-c3ccccc3)c2)=NO1)B(O)O` (stereo partly drawn) [Example 95, ((1R)-1-(3-([1,1′-biphenyl]-3-carboxamidomethyl)-5-benzyl-4,5-dihydroisoxazol-5-carboxamido)-3-methylbutyl)boronic acid] it is below 10 nM.
Turning to `Cc1cc(C(=O)NCC2=NOC(Cc3ccccc3)(C(=O)N[C@@H](CC(C)C)B(O)O)C2)n(C2CCOCC2)n1` (stereo partly drawn) [Example 218, ((1R)-1-(5-benzyl-3-((3-methyl-1-(tetrahydro-2H-pyran-4-yl)-1H-pyrazol-5-carboxamido)methyl)-4,5-dihydroisoxazol-5-carboxamido)-3-methylbutyl)boronic acid], the IC50 was below 10 nM.
As for `COc1cccc(COCC2=NOC(Cc3ccccc3)(C(=O)N[C@@H](Cc3ccccc3)B(O)O)C2)c1` (stereo partly drawn) [Example 273, ((1R)-1-(5-benzyl-3-(((3-methoxybenzyl)oxy)methyl)-4,5-dihydroisoxazol-5-carboxamido)-2-phenylethyl)boronic acid], the IC50 is below 10 nM.
Turning to `CC(C)C[C@H](NC(=O)C1CC(c2cccc(-c3ccccc3)n2)=NO1)B(O)O` (stereo partly drawn) [Example 25, ((1R)-3-methyl-1-(3-(6-phenylpyridin-2-yl)-4,5-dihydroisoxazol-5-carboxamido)butyl)boronic acid], the IC50 was below 100 nM.
With `CC(C)C[C@H](NC(=O)C1CC(c2ccc(-c3cccnc3)cc2)=NO1)B(O)O` (stereo partly drawn) [Example 31, ((1R)-3-methyl-1-(3-(4-(pyridin-3-yl)phenyl)-4,5-dihydroisoxazol-5-carboxamido)butyl)boronic acid], the IC50 was below 50 nM.
As for `CC(C)C[C@H](NC(=O)C1(Cc2cccc(F)c2F)CC(CNC(=O)c2nccc3ccccc23)=NO1)B(O)O` (stereo partly drawn) [Example 203, ((1R)-1-(5-(2,3-difluorobenzyl)-3-((isoquinolin-1-carboxamido)methyl)-4,5-dihydroisoxazol-5-carboxamido)-3-methylbutyl)boronic acid], the IC50 was below 10 nM.
On to `COCCn1nccc1C(=O)NCC1=NOC(Cc2ccccc2)(C(=O)N[C@@H](CC(C)C)B(O)O)C1` (stereo partly drawn) [Example 191, ((1R)-1-(5-benzyl-3-((1-(2-methoxyethyl)-1H-pyrazol-5-carboxamido)methyl)-4,5-dihydroisoxazol-5-carboxamido)-3-methylbutyl)boronic acid], for which the IC50 was below 25 nM.
On to `CC(C)C[C@H](NC(=O)C1CC(c2ccc3ccccc3c2)=NO1)B(O)O` (stereo partly drawn) [Example 17, ((1R)-3-methyl-1-(3-(naphthalen-2-yl)-4,5-dihydroisoxazol-5-carboxamido)butyl)boronic acid], for which the IC50 was below 500 nM.
The figure for `CC(C)C[C@H](NC(=O)C1(Cc2ccccc2)CC(CNC(=O)c2ccc(Cl)cc2)=NO1)B(O)O` (some centres unmarked) [Example 287] is below 10 nM; for `COCC1(C(=O)N[C@@H](CC(C)C)B(O)O)CC(CNC(=O)c2nccc3ccccc23)=NO1` (stereo partly drawn) [Example 192, ((1R)-1-(3-((isoquinolin-1-carboxamido)methyl)-5-(methoxymethyl)-4,5-dihydroisoxazol-5-carboxamido)-3-methylbutyl)boronic acid] it is below 10 nM.
The figure for `CC(C)C[C@H](NC(=O)C1(Cc2cccc(C(F)(F)F)c2)CC(CNC(=O)c2nccc3ccccc23)=NO1)B(O)O` (stereo partly drawn) [Example 215, ((1R)-1-(3-((isoquinolin-1-carboxamido)methyl)-5-(3-(trifluoromethyl)benzyl)-4,5-dihydroisoxazol-5-carboxamido)-3-methylbutyl)boronic acid] is below 10 nM; for `CC[C@H](NC(=O)C1(Cc2ccccc2)CC(CNC(=O)c2cc(Cl)ccc2Cl)=NO1)B(O)O` (stereo partly drawn) [Example 314, ((1R)-1-(5-benzyl-3-((2,5-dichlorobenzamido)methyl)-4,5-dihydroisoxazol-5-carboxamido)propyl)boronic acid] it is below 10 nM; for `CC(C)C[C@H](NC(=O)C1CC(c2ccc(Oc3ccccc3)cc2)=NO1)B(O)O` (stereo partly drawn) [Example 44, ((1R)-3-methyl-1-(3-(4-phenoxyphenyl)-4,5-dihydroisoxazol-5-carboxamido)butyl)boronic acid] it is below 500 nM.
Regarding `CC(C)C[C@H](NC(=O)C1CC(c2ccccc2)=NO1)B(O)O` (stereo partly drawn) [Example 1, ((1R)-3-methyl-1-(3-phenyl-4,5-dihydroisoxazol-5-carboxamido)butyl)boronic acid], the IC50 was below 500 nM.
For `COc1cccc(CC2(C(=O)N[C@@H](CC(C)C)B(O)O)CC(CNC(=O)c3cc(C)nn3C(C)C)=NO2)c1` (stereo partly drawn) [Example 232, ((1R)-1-(3-((1-isopropyl-3-methyl-1H-pyrazol-5-carboxamido)methyl)-5-(3-methoxybenzyl)-4,5-dihydroisoxazol-5-carboxamido)-3-methylbutyl)boronic acid], the IC50 was below 10 nM.
Take `COc1ccccc1-c1cccc(COCC2=NOC(Cc3ccccc3)(C(=O)N[C@@H](CC(C)C)B(O)O)C2)c1` (stereo partly drawn) [Example 58, [(1R)-1-[[5-benzyl-3-[[3-(2-methoxyphenyl)phenyl]methoxymethyl]-4H-1,2-oxazol-5-carbonyl]amino]-3-methyl-butyl]boronic acid]: the IC50 is below 25 nM.
On to `CC(C)C[C@H](NC(=O)C1CC(c2cccc3ccccc23)=NO1)B(O)O` (stereo partly drawn) [Example 19, ((1R)-3-methyl-1-(3-(naphthalen-1-yl)-4,5-dihydroisoxazol-5-carboxamido)butyl)boronic acid], for which the IC50 is below 100 nM.
The figure for `CC(C)C[C@H](NC(=O)C1(Cc2ccccc2)CC(CNC(=O)Cc2ccccc2)=NO1)B(O)O` (stereo partly drawn) [Example 109, ((1R)-1-(5-benzyl-3-((2-phenylacetamido)methyl)-4,5-dihydroisoxazol-5-carboxamido)-3-methylbutyl)boronic acid] is below 10 nM; for `O=C(N[C@@H](Cc1ccccc1)B(O)O)C1(Cc2ccccc2)CC(COCc2ccccn2)=NO1` (stereo partly drawn) [Example 269, ((1R)-1-(5-benzyl-3-((pyridin-2-ylmethoxy)methyl)-4,5-dihydroisoxazol-5-carboxamido)-2-phenylethyl)boronic acid] it is below 25 nM.
